Measurements taken from US20250179059A1 (The Regents of the University of California, priority 2021, published 2025).

Assays:
[1] = biological target: T1, human BRD4 bromodomain II (Homo sapiens, UniProt O60885); assay: Bromodomain binding assay (AlphaScreen), BRD4 BDII; conditions: AlphaScreen assay, Table C2; read-out: BRD4 BDII IC50
T1 construct: human BRD4 bromodomain II [based on Genbank NM_058243, residues 349-460]; host or cells: E. coli
How it was run: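 Compounds (10-point, 3-fold series) were preincubated 30 min at room temperature with E. coli-expressed N-terminal His6-tagged BRD4 BDII (residues 349-460) or BDI (residues 44-170) in 50 mM HEPES pH 7.5, 100 mM NaCl, 0.05% CHAPS, 0.1% BSA, 1% DMSO. Displacement of biotinylated tetra-acetylated H4 1-21 peptide was read by AlphaScreen; IC50 from curve fitting.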

[2] = tested on: human SKM-1 acute myeloid leukemia cells; assay: SKM-1 antiproliferation cell-based assay (ATPlite); conditions: Homo sapiens, SKM-1, 96 h, SKM-1 antiproliferation assay, 4 days, Table C2
How it was run: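 Log-phase cells in RPMI 1640/15% FBS were seeded at 34722 cells/mL and exposed for 4 days to nine-concentration DMSO serial dilutions in triplicate. Viability was read as ATP luminescence (ATPlite 1step), and IC50 values came from variable-slope non-linear regression.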

Row | Compound | IC50 [1] | GI50 [2]
1 | Cn1ccn(-c2ccc(-c3cc(F)cc(-c4cccc(N5CC[C@](C)(N)C5)c4)c3O)cc2Cl)c1=O [Example 749, (S)-1-(3″-(3-amino-3-methylpyrrolidin-1-yl)-3-chloro-5′-fluoro-2′-hydroxy-[1,1′:3′,1″-terphenyl]-4-yl)-3-methyl-1H-imidazol-2(3H)-one] | 1 to 10 nM | 0.3 to 30 nM
2 | CC(C)N1CCCC12CCN(c1cc(-c3cc(F)cc(-c4ccc(-n5ccn(C)c5=O)c(Cl)c4)c3O)ccn1)C2 (centres unmarked) [Example 751, 1-(3-chloro-5′-fluoro-2′-hydroxy-3′-(2-(1-isopropyl-1,7-diazaspiro[4.4]nonan-7-yl)pyridin-4-yl)-[1,1′-biphenyl]-4-yl)-3-methyl-1H-imidazol-2(3H)-one] | 1 to 10 nM | 0.3 to 30 nM
3 | Cn1ccn(-c2ccc(-c3cc(F)cc(-c4cccc(N5CC[C@@](C)(N)C5)c4)c3O)cc2Cl)c1=O [Example 758, (R)-1-(3″-(3-amino-3-methylpyrrolidin-1-yl)-3-chloro-5′-fluoro-2′-hydroxy-[1,1′:3′,1″-terphenyl]-4-yl)-3-methyl-1H-imidazol-2(3H)-one] | 0.01 to 1 nM | 0.3 to 30 nM
4 | Cn1cc(-c2cc(F)cc(-c3ccc(-n4ccn(C)c4=O)c(Cl)c3)c2O)cc(N2CC[C@](C)(N)C2)c1=O [Example 759, (S)-3-(3-amino-3-methylpyrrolidin-1-yl)-5-(3′-chloro-5-fluoro-2-hydroxy-4′-(3-methyl-2-oxo-2,3-dihydro-1H-imidazol-1-yl)-[1,1′-biphenyl]-3-yl)-1-methylpyridin-2(1H)-one] | 0.01 to 1 nM | 0.3 to 30 nM
5 | Cn1ccn(-c2ccc(-c3cc(F)cc(-c4ccnc(N5CC[C@H](C(N)=O)C5)c4)c3O)cc2Cl)c1=O [Example 760] | 0.01 to 1 nM | 30 to 300 nM
6 | Cn1ccn(-c2ccc(-c3cc(F)cc(-c4ccnc(N5CC[C@@H](C(N)=O)C5)c4)c3O)cc2Cl)c1=O [Example 761, (R)-1-(4-(3′-chloro-5-fluoro-2-hydroxy-4′-(3-methyl-2-oxo-2,3-dihydro-1H-imidazol-1-yl)-[1,1′-biphenyl]-3-yl)pyridin-2-yl)pyrrolidine-3-carboxamide] | 1 to 10 nM | 30 to 300 nM
7 | Cn1ccn(-c2ccc(-c3cc(F)cc(-c4ccnc(N5CCC(C)(O)CC5)c4)c3O)cc2Cl)c1=O [Example 762, 1-(3-chloro-5′-fluoro-2′-hydroxy-3′-(2-(4-hydroxy-4-methylpiperidin-1-yl)pyridin-4-yl)-[1,1′-biphenyl]-4-yl)-3-methyl-1,3-dihydro-2H-imidazol-2-one] | 1 to 10 nM | 30 to 300 nM
8 | COCC(C)(C)N1CCN(c2cc(-c3cc(F)cc(-c4ccc(-n5ccn(C)c5=O)c(Cl)c4)c3O)cn(C)c2=O)CC1 [Example 763] | 1 to 10 nM | 0.3 to 30 nM
9 | CC(=O)NC1(c2cccc(-c3cc(F)cc(-c4ccc(-n5ccn(C)c5=O)c(Cl)c4)c3O)c2)CC1 [Example 764, N-(1-(3″-chloro-5′-fluoro-2′-hydroxy-4″-(3-methyl-2-oxo-2,3-dihydro-1H-imidazol-1-yl)-[1,1′:3′,1″-terphenyl]-3-yl)cyclopropyl)acetamide] | 1 to 10 nM | 300 to 3000 nM

Other lines, results leading:

Row | IC50 [1] | GI50 [2] | Compound
10 | 0.01 to 1 nM | 0.3 to 30 nM | Cn1ccn(-c2ccc(-c3cc(F)cc(-c4cncc(N5CC[C@](C)(N)C5)c4)c3O)cc2Cl)c1=O [Example 746, (S)-1-(3′-(5-(3-amino-3-methylpyrrolidin-1-yl)pyridin-3-yl)-3-chloro-5′-fluoro-2′-hydroxy-[1,1′-biphenyl]-4-yl)-3-methyl-1H-imidazol-2(3H)-one]
11 | 0.01 to 1 nM | 0.3 to 30 nM | CC(C)N1CC2CN(c3cc(-c4cc(F)cc(-c5ccc(-n6ccn(C)c6=O)c(Cl)c5)c4O)ccn3)CC21 (centres unmarked) [Example 747, 1-(3-chloro-5′-fluoro-2′-hydroxy-3′-(2-(6-isopropyl-3,6-diazabicyclo[3.2.0]heptan-3-yl)pyridin-4-yl)-[1,1′-biphenyl]-4-yl)-3-methyl-1H-imidazol-2(3H)-one]
12 | 0.01 to 1 nM | 0.3 to 30 nM | CC(C)N1CCC12CCN(c1cc(-c3cc(F)cc(-c4ccc(-n5ccn(C)c5=O)c(Cl)c4)c3O)ccn1)C2 (centres unmarked) [Example 748, 1-(3-chloro-5′-fluoro-2′-hydroxy-3′-(2-(1-isopropyl-1,6-diazaspiro[3.4]octan-6-yl)pyridin-4-yl)-[1,1′-biphenyl]-4-yl)-3-methyl-1H-imidazol-2(3H)-one]
13 | 0.01 to 1 nM | 0.3 to 30 nM | Cn1ccn(-c2ccc(-c3cc(F)cc(-c4ccnc(N5CCC(N)(CO)C5)c4)c3O)cc2Cl)c1=O (centres unmarked) [Example 750, 1-(3′-(2-(3-amino-3-(hydroxymethyl)pyrrolidin-1-yl)pyridin-4-yl)-3-chloro-5′-fluoro-2′-hydroxy-[1,1′-biphenyl]-4-yl)-3-methyl-1H-imidazol-2(3H)-one]
14 | 0.01 to 1 nM | 0.3 to 30 nM | CN(C)[C@@H]1CN(c2cc(-c3cc(F)cc(-c4ccc(-n5ccn(C)c5=O)c(Cl)c4)c3O)ccn2)C[C@H]1O [Example 752, 1-(3-chloro-3′-(2-((3R,4R)-3-(dimethylamino)-4-hydroxypyrrolidin-1-yl)pyridin-4-yl)-5′-fluoro-2′-hydroxy-[1,1′-biphenyl]-4-yl)-3-methyl-1H-imidazol-2(3H)-one]
15 | 0.01 to 1 nM | 0.3 to 30 nM | Cn1cc(-c2cc(F)cc(-c3ccc(-n4ccn(C)c4=O)c(Cl)c3)c2O)cc(N2CC[C@@](C)(N)C2)c1=O [Example 753, (R)-3-(3-amino-3-methylpyrrolidin-1-yl)-5-(3′-chloro-5-fluoro-2-hydroxy-4′-(3-methyl-2-oxo-2,3-dihydro-1H-imidazol-1-yl)-[1,1′-biphenyl]-3-yl)-1-methylpyridin-2(1H)-one]
16 | 0.01 to 1 nM | 0.3 to 30 nM | Cn1ccn(-c2ccc(-c3cc(F)cc(-c4cc(F)cc(N5CCN(C(C)(C)C)CC5)c4)c3O)cc2Cl)c1=O [Example 754, 1-(3″-(4-(tert-butyl)piperazin-1-yl)-3-chloro-5′,5″-difluoro-2′-hydroxy-[1,1′:3′,1″-terphenyl]-4-yl)-3-methyl-1H-imidazol-2(3H)-one]
17 | 0.01 to 1 nM | 0.3 to 30 nM | Cn1ccn(-c2ccc(-c3cc(F)cc(-c4ccnc(N5CC(N)C6(CC6)C5)c4)c3O)cc2Cl)c1=O (centres unmarked) [Example 755, 1-(3′-(2-(7-amino-5-azaspiro[2.4]heptan-5-yl)pyridin-4-yl)-3-chloro-5′-fluoro-2′-hydroxy-[1,1′-biphenyl]-4-yl)-3-methyl-1H-imidazol-2(3H)-one]
18 | 0.01 to 1 nM | 0.3 to 30 nM | CCc1ncc(-c2cc(F)cc(-c3ccc(-n4ccn(C)c4=O)c(Cl)c3)c2O)cc1N1CCN(C(C)C)CC1 [Example 756, 1-(3-chloro-3′-(6-ethyl-5-(4-isopropylpiperazin-1-yl)pyridin-3-yl)-5′-fluoro-2′-hydroxy-[1,1′-biphenyl]-4-yl)-3-methyl-1H-imidazol-2(3H)-one]
19 | 0.01 to 1 nM | 30 to 300 nM | Cn1ccn(-c2ccc(-c3cc(F)cc(-c4ccnc(N5CC6CCC(C5)C6(C)N)c4)c3O)cc2Cl)c1=O (centres unmarked) [Example 757, 1-(3′-(2-(8-amino-8-methyl-3-azabicyclo[3.2.1]octan-3-yl)pyridin-4-yl)-3-chloro-5′-fluoro-2′-hydroxy-[1,1′-biphenyl]-4-yl)-3-methyl-1H-imidazol-2(3H)-one]
